# Source: patent publication US20180125842A1, “Ergoloid for Cancer” (priority 2016, published 2018)
# System: splenic lymphoma
# Assay: Clinical use in splenic lymphoma
# Assay type: in vivo, human
# Settings: before addition of Ergoloid
substance,measurement,value
Rituxan: an immunotherapy,disease course on Rituxan alone,gradually allowing progression
